From US8945540B2, “Compositions for enhancing the antibacterial activity of myeloperoxidase and methods of use thereof” (Exoxemis, Inc., priority 2008, dated 2015)
Where two headings read alike, the source gives them in different places.

What was measured:
[1] = system: Staphylococcus aureus; test: Control: microbicidal activity of the amino acid or analogue alone (no glucose, MPO, glucose oxidase) in the presence of blood; type: cell-based; conditions: for log reduction at 5000 µM: Staphylococcus aureus, 1 h, read-out: Log Reduction 60 min
Source text: As a control to determine the microbicidal activity of the amino acids alone, the foregoing procedure was followed without replication, except in the absence of glucose, MPO, and glucose oxidase.

[2] = system: Staphylococcus aureus; test: Microbicidal activity of the myeloperoxidase system (p-MPO, glucose oxidase, glucose) with amino acids in the presence of blood, CFU plate counts; synergy determination from these CFU; type: cell-based; conditions: for Average Viability CFU/ml 50 min / Log Reduction 50 min: MPO 4.7 U/ml, GO 4.2 U/ml
Method: Bacterial suspensions, specifically Staphylococcus aureus in this example, were prepared by the shake flask method to achieve late log to early stationary phase growth. Bacteria were grown 24 hours in trypticase soy broth (TSB) at 35° C. The cultures were centrifuged at 4,000 rpm for 10 minutes and the supernatants removed. The pellet was collected and washed twice with sterile 0.9% normal saline (NS). The washed microorganisms were suspended and diluted with normal saline to a 3 McFarland standard, i.e., approximately 10^9 bacteria colony forming units (CFU) per mL. Actual colony counts are confirmed by serial dilutions (10^−1 to 10^−5 or 10^−6) plated on TSA and incubated overnight at 35° C. To obtain an approximate final working target inoculum of 10^7 CFU/mL, 15 microliters of organisms per mL of final reaction mixture are used.
Glucose oxidase (GO) from Aspergillus Niger was purchased from Biozyme, Inc., UK, Cat #GO3A, 270 U/mg). Porcine Myeloperoxidase (p-MPO) (Exoxemis, Inc., Little Rock, Ark. U.S.A., 375 U/mg). Sterile stock solutions of D-glucose and sodium chloride were prepared and used at a final concentration of 150 mM each. L-Lysine hydrochloride (Spectrum Chemical Cat #L1142) was prepared as a 100 mM stock solution. Catalase (Sigma, Cat #C-40) was prepared as a 1% stock solution in sterile 0.9% normal saline. Blood was collected by venipuncture and used as whole blood within the same day.
Staphylococcus aureus were used to give a final target concentration of 2-3×10^7 CFU (7.4 log 10) per mL and venous whole blood was used to give a final concentration of 3%. Glucose was added to the reaction mixtures to a final concentration of 150 mM, which initiated the microbicidal reaction. The final volume of the reaction mixtures was 1 mL. The reactions were allowed to run from 30 minutes to 2 hours, as needed, at room temperature or at 37° C. in a dry bath. At the specified time points the reaction mixtures were treated with 100 microliters of a catalase solution, containing a minimum of 100 units/μL, to consume remaining peroxide and terminate the oxidative killing. Serial dilution plate counts were performed from the contents of each vial in sterile saline and inoculated onto trypticase soy agar (TSA) for quantitative culture. Plates were then incubated at 37° C. and counts taken at 24 hours. […] The results are shown in Table 1, as the average of 2 replicates.
The amino acids alone, in the absence of MPO were tested to rule out their microbicidal activity. The results are shown in Table 2 to Table 6, as the average of 2 replicates.
The amino acid analogues alone, in the absence of MPO, were tested to rule out their microbicidal activity. […]
The effect of two-way combinations of individual amino acids with L-isoleucine, as potential enhancing agents, for MPO microbicidal action in the presence of blood, was therefore examined by following the procedure of Example 5.
The Actual CFU observed for the pair is then divided by the Predicted CFU and multiplied by 100 to calculate the % of Predicted value. This value is then to be compared to the threshold value, discussed in the next section, to determine whether the pair are synergistic, antagonistic, or additive.
Calculation of appropriate threshold values for determination of synergism and antagonism was based upon the variability of replicated CFU survivor measures.

[3] = amino acid alone 5 mM, MPO 0, GO 0, no glucose, blood, without replication
[4] = MPO 100 μg/mL, AA 20 mM, 30 min
[5] = MPO 100 μg/mL, AA 20 mM, 60 min
[6] = Table 5, amino acid 5 mM (none: 0 mM), MPO 38 U/ml, GO 33.3 U/ml, blood
[7] = Table 10, single amino acid 2.5 mM, in the presence of blood
[8] = Table 11, single amino acid 2.5 mM, in the presence of blood
[9] = Table 14, single amino acid 2.5 mM, in the presence of blood
[10] = Table 2, amino acid 5 mM (none: 0 mM), MPO 38 U/ml, GO 33.3 U/ml, blood
[11] = Table 13, single amino acid 2.5 mM, in the presence of blood
[12] = Table 4, amino acid 5 mM (none: 0 mM), MPO 38 U/ml, GO 33.3 U/ml, blood
[13] = Table 19, amino acid (racemic, L- or D-form) 2.5 mM
[14] = amino acid analogue alone 5 mM, MPO 0, GO 0, no glucose, blood
[15] = Table 7, amino acid analogue 5 mM, MPO 38 U/ml, GO 33.3 U/ml, blood

Compound	log reduction at 5000 µM [1]	Average Viability CFU/ml 60 min [1, 3] [CFU/ml]	Log 10 (CFU + 1) Survivors ([2]; MPO 25 μg/mL, AA 5 mM, 30 min)	Log 10 (CFU + 1) Survivors ([2]; MPO 25 μg/mL, AA 5 mM, 60 min)	Log 10 (CFU + 1) Survivors ([2]; MPO 25 μg/mL, AA […], 30 min)	Log 10 (CFU + 1) Survivors ([2]; MPO 25 μg/mL, AA […], 60 min)	Log 10 (CFU + 1) Survivors ([2]; MPO 100 μg/mL, AA 5 mM, 30 min)	Log 10 (CFU + 1) Survivors ([2]; MPO 100 μg/mL, AA 5 mM, 60 min)	Log 10 (CFU + 1) Survivors [2, 4]	Log 10 (CFU + 1) Survivors [2, 5]	Average Viability CFU/ml 50 min [2, 7] [CFU/ml]	Log Reduction 50 min [2, 7]	Average Viability CFU/ml 50 min [2, 8] [CFU/ml]	Log Reduction 50 min [2, 8]	Average Viability CFU/ml 50 min [2, 9] [CFU/ml]	Log Reduction 50 min [2, 9]	Average Viability CFU/ml 50 min [2, 11] [CFU/ml]	Log Reduction 50 min [2, 11]	other results
N=C(N)NCCC[C@@H](N)C(=O)O [D-Arginine]	0.1	21500000	6.9	6.7	7.0	5.9	6.9	0.0	7.0	6.8	14200000	0.2	14650000	0.3	15000000	0.3	–	–	Average Viability CFU/ml 60 min [2, 6]: 0 CFU/ml; Log Reduction 60 min [2, 6]: 7.4; enhancement of MPO microbicidal activity (in words) ([2]; amino acid 5 mM, MPO 38 U/ml, GO 33.3 U/ml, blood): highly active
N[C@@H](CCC(=O)O)C(=O)O [L-Glutamic acid]	0	23700000	7.1	7.0	7.3	6.7	6.9	2.8	7.3	6.0	10850000	0.4	–	–	13700000	0.3	11800000	0.3	Average Viability CFU/ml 60 min [2, 10]: 236 CFU/ml; Log 10 (CFU + 1) Survivors 60 min [2, 10]: 2.4; Log Reduction 60 min [2, 10]: 5.0
CC(C)C[C@@H](N)C(=O)O [D-Leucine]	–	24400000	3.8	2.2	6.7	2.1	2.7	2.0	1.8	1.9	–	–	313000	1.9	163500	2.2	119000	2.3	log reduction at 5000 µM [1, 3]: 0; Average Viability CFU/ml 60 min [2, 12]: 66550 CFU/ml; Log Reduction 60 min [2, 12]: 2.6; Average Viability CFU/ml 50 min [2, 13]: 215000 CFU/ml; Log Reduction 50 min [2, 13]: 2.1
CC(C)CC(N)CC(=O)O (racemic) [DL-Beta-homoleucine]	–	–	–	–	–	–	–	–	–	–	–	–	–	–	–	–	–	–	log reduction at 5000 µM [1, 14]: 0; Average Viability CFU/ml 60 min [1, 14]: 20500000 CFU/ml; Average Viability CFU/ml 60 min [2, 15]: 0 CFU/ml; Log Reduction 60 min [2, 15]: 7.4
